How the values were obtained:
[1] = tested on: HCV replicon gt1b_con1; test: Cell-based HCV replicon assay (TaqMan), genotype 1b (Con1); settings: Hepatitis C virus, 72 h; replicon 1b (Con1); replicon RNA by TaqMan, day 3
Procedure: (§1) Measurement of inhibition by compounds of the present invention was performed using the HCV replicon system. Several different replicons encoding different HCV genotypes or mutations were used. In addition, potency measurements were made using different formats of the replicon assay, including different ways of measurements and different plating formats. See Jan M. Vrolijk et al., A replicons-based bioassay for the measurement of interferons in patients with chronic hepatitis C, 110 J. VIROLOGICAL METHODS 201 (2003); Steven S. Carroll et al., Inhibition of Hepatitis C Virus RNA Replication by 2′-Modified Nucleoside Analogs, 278(14) J. BIOLOGICAL […] 11979 (2003). However, the underlying principles are common to all of these determinations, and are outlined below.
(§2) Compounds of the present invention were assayed for cell-based anti-HCV activity using the following protocol. Replicon cells were seeded at 5000 cells/well in 96-well collagen I-coated Nunc plates in the presence of the test compound. Various concentrations of test compound, typically in 10 serial 2-fold dilutions, were added to the assay mixture, with the starting concentration ranging from 250 μM to 1 μM. The final concentration of DMSO was 0.5%, fetal bovine serum was 5%, in the assay media. Cells were harvested on day 3 by the addition of 1× cell lysis buffer (Ambion cat #8721). The replicon RNA level was measured using real time PCR (TaqMan® assay). The amplicon was located in 5B. The PCR primers were: 5B.2F, […] (SEQ. ID NO. 1); 5B.2R, […] (SEQ. ID NO. 2); the probe sequence was FAM-labeled […] (SEQ. ID NO. 3). GAPDH RNA was used as endogenous control and was amplified in the same reaction as NS5B (multiplex PCR) using primers and VIC-labeled probe recommended by the manufacturer (PE Applied Biosystem). The real-time RT-PCR reactions were run on ABI PRISM 7900HT Sequence Detection System using the following program: 48° C. for 30 minutes, 95° C. for 10 minutes, 40 cycles of 95° C. for 15 sec, 60° C. for 1 minute. The ΔCT values (CT5B-CTGAPDH) were plotted against the concentration of test compound and fitted to the sigmoid dose-response model using XLfit4 (MDL). […] Alternatively, to quantitate the absolute amount of replicon RNA, a standard curve was established by including serially diluted T7 transcripts of replicon RNA in the Taqman assay. All TaqMan® reagents were from PE Applied Biosystems. Such an assay procedure was described in detail in e.g. Malcolm et al., Antimicrobial Agents and Chemotherapy 50: 1013-1020 (2006).
(§3) Wherein gt1a_H77 was prepared as described in Yi et al., J Virol. 2004, 78(15):7904-15; gt1b_con1 was prepared as described in Lohmann et al., Science 1999, 285(5424):110-3; and gt2a_JFH was prepared as described in Kato et al., Gastroenterology. 2003, 125(6):1808-17. Chimeric replicons contain NS5A from patient isolates of genotypes 1a, 1b, 2b, 3a and 4a as indicated.

[2] = tested on: HCV replicon gt1a_H77; test: Cell-based HCV replicon assay (TaqMan), genotype 1a (H77); settings: Hepatitis C virus, 72 h, replicon 1a (H77); replicon RNA by TaqMan, day 3
Procedure: as §1, §2, §3

[3] = tested on: HCV replicon 1a (L31V) mutant; test: Cell-based HCV replicon assay (TaqMan), genotype 1a mutant L31V; settings: Hepatitis C virus, 72 h, read-out: HCV replicon EC50 1a (L31V)
Procedure: as §1, §2, §3

[4] = tested on: HCV chimeric replicon with NS5A of genotype 4a (DQ41878); test: Cell-based HCV replicon assay (TaqMan), chimeric replicon genotype 4a (DQ41878); settings: Hepatitis C virus, 72 h, read-out: HCV replicon EC50 4a (DQ41878)
Procedure: as §1, §2, §3

[5] = tested on: HCV replicon 1a (Y93H) mutant; test: Cell-based HCV replicon assay (TaqMan), genotype 1a mutant Y93H; settings: Hepatitis C virus, 72 h, read-out: HCV replicon EC50 1a (Y93H)
Procedure: as §1, §2, §3

[6] = tested on: HCV replicon gt2a_JFH; test: Cell-based HCV replicon assay (TaqMan), genotype 2a (JFH); settings: Hepatitis C virus, 72 h, replicon 2a (JFH); replicon RNA by TaqMan, day 3
Procedure: as §1, §2, §3

[7] = tested on: HCV chimeric replicon with NS5A of genotype 3a (NC00982); test: Cell-based HCV replicon assay (TaqMan), chimeric replicon genotype 3a (NC00982); settings: Hepatitis C virus, 72 h, read-out: HCV replicon EC50 3a (NC00982), chimeric replicon 3a (NC00982); replicon RNA by TaqMan, day 3
Procedure: as §1, §2, §3

| Structure (SMILES) | EC50 [1] [nM] | EC50 [2] [nM] | EC50 [3] [nM] | EC50 [4] [nM] | EC50 [5] [nM] | EC50 [6] [nM] | EC50 [7] [nM] |
| --- | --- | --- | --- | --- | --- | --- | --- |
| COC(=O)N[C@H](C(=O)N1CC[C@H](C)[C@H]1c1nc2ccc3cc(-c4ccc(-c5cnc([C@@H]6C[Si](C)(C)CN6C(=O)[C@@H](NC(=O)OC)C(C)C)[nH]5)cc4)ccc3c2[nH]1)C(C)C [Compound 95] | 0.015 | > 0.1 | 9 | 1.22 | 210 | 0.032 | 0.066 |
| COCCOC(=O)N[C@H](C(=O)N1CCC(F)(F)C[C@H]1c1ncc(-c2ccc(-c3ccc4c(ccc5nc([C@@H]6C[Si](C)(C)CN6C(=O)[C@@H](NC(=O)OCCOC)C(C)C)[nH]c54)c3)cc2)[nH]1)C(C)C [Compound 87] | 2.5 | > 1 | > 1000 | > 100 | > 1000 | > 10 | > 100 |
| COC(=O)N[C@H](C(=O)N1C[Si](C)(C)C[C@H]1c1ncc(-c2ccc(-c3ccc4c(ccc5nc([C@H]6[C@@H]7C[C@@H]([C@@H](F)[C@H]7F)N6C(=O)[C@@H](NC(=O)OC)C(C)C)[nH]c54)c3)cc2)[nH]1)C(C)C [Compound 102] | < 2 | 0.084 | 113 | 0.3 | 438 | 0.097 | 7.5 |
| COC(=O)N[C@H](C(=O)N1C[Si](C)(C)C[C@H]1c1ncc(-c2ccc(-c3ccc4c(ccc5nc([C@@H]6C[C@@H](F)CN6C(=O)[C@@H](NC(=O)OC)C(C)C)[nH]c54)c3)c(F)c2)[nH]1)C(C)C [Compound 57] | < 0.05 | 0.068 |  | 0.652 | 50 | 0.069 | 0.798 |
| COC(=O)N[C@H](C(=O)N1CC(F)(F)C[C@H]1c1ncc(-c2ccc(-c3ccc4c(ccc5nc([C@@H]6C[Si](C)(C)CN6C(=O)[C@@H](NC(=O)OC)C(C)C)[nH]c54)c3)c(F)c2)[nH]1)C(C)C [Compound 60] | 0.003 | 0.06 |  | 0.129 | 96 | 0.09 | 2.9 |
| COC(=O)N[C@H](C(=O)N1CC(C)(C)C[C@H]1c1ncc(-c2ccc(-c3ccc4c(ccc5nc([C@@H]6C[Si](C)(C)CN6C(=O)[C@@H](NC(=O)OC)C(C)C)[nH]c54)c3)cc2)[nH]1)C(C)C [Compound 78] | 0.001 | 0.015 |  | 0.137 | 90 | 0.04 | 0.26 |
| COC(=O)N[C@H](C(=O)N1CC(F)(F)C[C@H]1c1nc2ccc3cc(-c4ccc5c(ccc6nc([C@@H]7C[Si](C)(C)CN7C(=O)[C@@H](NC(=O)OC)C(C)C)[nH]c65)c4)ccc3c2[nH]1)C(C)C [Compound 70] | 0.007 | 0.012 |  | 0.077 | 25 | 0.04 | 0.118 |
| COC(=O)N[C@H](C(=O)N1C[Si](C)(C)C[C@H]1c1ncc(-c2ccc(-c3ccc4c(ccc5nc([C@@H]6CC(F)CN6C(=O)[C@@H](NC(=O)OC)C(C)C)[nH]c54)c3)cc2)[nH]1)C(C)C (stereo partly drawn) [Compound 53] | 0.003 | 0.016 | 64 | 0.1 | 10 | 0.026 | 0.09 |
| COC(=O)N[C@@H](C)C(=O)N1C[Si](C)(C)C[C@H]1c1ncc(-c2ccc(-c3ccc4c(ccc5nc([C@@H]6CC(F)(F)CN6C(=O)[C@@H](NC(=O)OC)C(C)C)[nH]c54)c3)cc2)[nH]1 [Compound 106] | 0.006 | 0.016 | 37.1 | 0.429 | 52.6 | 0.046 | 0.435 |
| CC(C)OC(=O)N[C@H](C(=O)N1C[Si](C)(C)C[C@@H]1c1ncc(-c2ccc(-c3ccc4c(ccc5nc([C@H]6C[C@H](F)CN6C(=O)[C@@H](NC(=O)OC(C)C)C(C)C)[nH]c54)c3)c(F)c2)[nH]1)C(C)C [Compound 84] | 2.4 | > 1 |  | > 100 | > 1000 | > 10 | > 100 |
| COC(=O)N[C@H](C(=O)N1C[Si](C)(C)C[C@H]1c1nc2ccc3cc(-c4ccc(-c5cnc([C@@H]6CCCN6C(=O)[C@@H](NC(=O)OC)C67CC(C(F)(F)F)(C6)C7)[nH]5)cc4)ccc3c2[nH]1)C(C)C [Compound 81] | 0.012 | 0.94 | > 100 | > 10 | > 1000 | 0.712 | 9.69 |
| COC(=O)N[C@H](C(=O)N1C[Si](C)(C)C[C@H]1c1ncc(-c2ccc(-c3ccc4c(ccc5nc([C@@H]6CC(F)(F)CN6C(=O)[C@@H](NC(=O)OC)C(C)C)[nH]c54)c3)c(F)c2)[nH]1)C(C)C [Compound 58] | 0.002 | 0.03 |  | 0.36 | 118 | 0.15 | 0.8 |
| COC(=O)N[C@H](C(=O)N1C[Si]2(CCCC2)C[C@H]1c1ncc(-c2ccc(-c3ccc4c(ccc5nc([C@@H]6CC(F)(F)CN6C(=O)[C@@H](NC(=O)OC)C(C)C)[nH]c54)c3)cc2)[nH]1)C(C)C [Compound 89] | 0.006 | 0.054 |  | 0.035 | 211 | 0.5 | 0.275 |
| COC(=O)N[C@H](C(=O)N1CC(F)C[C@H]1c1ncc(-c2ccc(-c3ccc4c(ccc5nc([C@@H]6C[Si](C)(C)CN6C(=O)[C@@H](NC(=O)OC)C(C)C)[nH]c54)c3)cc2)[nH]1)C(C)C (stereo partly drawn) [Compound 55] | 0.006 | 0.07 | 62 | 0.35 | 27 | 0.15 | 0.8 |
| COC(=O)N[C@H](C(=O)N1CC(F)(F)C[C@H]1c1nc2ccc3cc(-c4ccc(-c5cnc([C@@H]6C[Si](C)(C)CN6C(=O)[C@@H](NC(=O)OC)C6CC6)[nH]5)cc4)ccc3c2[nH]1)C(C)C [Compound 105] | 0.003 | 0.021 | 43 | 0.18 | 151 | 0.141 | 0.17 |
| CC(C)[C@H](NC(=O)OC1(C)CC1)C(=O)N1CC(C)(C)C[C@H]1c1ncc(-c2ccc(-c3ccc4c(ccc5nc([C@@H]6C[Si](C)(C)CN6C(=O)[C@@H](NC(=O)OC6(C)CC6)C(C)C)[nH]c54)c3)cc2)[nH]1 [Compound 80] | > 1 | > 1 |  | > 100 | > 1000 | > 10 | > 100 |
| COC(=O)N[C@H](C(=O)N1C[Si](C)(C)C[C@H]1c1nc2ccc3cc(-c4ccc(-c5cnc([C@@H]6[C@@H]7C[C@@H]([C@@H](F)[C@H]7F)N6C(=O)[C@@H](NC(=O)OC)C(C)C)[nH]5)cc4)ccc3c2[nH]1)C(C)C [Compound 100] | 0.002 | 0.043 | 117 | < 0.2 | 204 | 0.023 | 7.4 |
| CC(C)[C@H](NC(=O)OC1(C)CC1)C(=O)N1C[Si](C)(C)C[C@@H]1c1ncc(-c2ccc(-c3ccc4c(ccc5nc([C@H]6C[C@H](F)CN6C(=O)[C@@H](NC(=O)OC6(C)CC6)C(C)C)[nH]c54)c3)c(F)c2)[nH]1 [Compound 83] | 52 | > 1 |  | > 100 | > 1000 | > 10 | > 100 |

Reference: patent US8609635B2, “Fused tricyclic silyl compounds and methods of use thereof for the treatment of viral diseases” (priority 2010, dated 2013)
